# Reference: PubChem BioAssay (NCI)
#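 A five-concentration, 48-hour dose response in 96-well plates underlies each endpoint, interpolated linearly between surrounding concentrations. GI50 is the concentration that inhibits growth by half. At the TGI there is no net growth.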
# Legend:
# Assay in all cases: growth of human tumour cells (NCI), 48 h
# [1] = tested on: 786-0 renal
# [2] = tested on: A498 renal
# [3] = tested on: A549 NSCLC
# [4] = tested on: ACHN renal
# [5] = tested on: BT-549 breast
# [6] = tested on: CAKI-1 renal
# [7] = tested on: CCRF-CEM leukemia
# [8] = tested on: COLO 205 colon
# [9] = tested on: DU-145 prostate
# [10] = tested on: EKVX NSCLC
# [11] = tested on: HCC-2998 colon
# [12] = tested on: HCT-116 colon
# [13] = tested on: HCT-15 colon
# [14] = tested on: HL-60(TB) leukemia
# [15] = tested on: HOP-62 NSCLC
# [16] = tested on: HOP-92 NSCLC
# [17] = tested on: HS 578T breast
# [18] = tested on: HT29 colon
# [19] = tested on: IGROV1 ovarian
# [20] = tested on: K-562 leukemia
# [21] = tested on: KM12 colon
# [22] = tested on: LOX IMVI melanoma
# [23] = tested on: M14 melanoma
# [24] = tested on: MALME-3M melanoma
# [25] = tested on: MCF7 breast
# [26] = tested on: MDA-MB-231 breast
# [27] = tested on: MDA-MB-435
# [28] = tested on: MOLT-4 leukemia
# [29] = tested on: NCI-H226 lung
# [30] = tested on: NCI-H23 lung
# [31] = tested on: NCI-H460 lung
# [32] = tested on: NCI-H522 lung
# [33] = tested on: NCI/ADR-RES ovarian
# [34] = tested on: OVCAR-3 ovarian
# [35] = tested on: OVCAR-4 ovarian
# [36] = tested on: OVCAR-5 ovarian
# [37] = tested on: OVCAR-8 ovarian
# [38] = tested on: PC-3 prostate
# [39] = tested on: RPMI-8226 leukemia
# [40] = tested on: RXF 393 renal
# [41] = tested on: SF-268 CNS
# [42] = tested on: SF-295 CNS
# [43] = tested on: SF-539 CNS
# [44] = tested on: SK-MEL-2 melanoma
# [45] = tested on: SK-MEL-28 melanoma
# [46] = tested on: SK-MEL-5 melanoma
# [47] = tested on: SK-OV-3 ovarian
# [48] = tested on: SN12C renal
# [49] = tested on: SNB-19 CNS
# [50] = tested on: SNB-75 CNS
# [51] = tested on: SR leukemia
# [52] = tested on: SW-620 colon
# [53] = tested on: T-47D breast
# [54] = tested on: TK-10 renal
# [55] = tested on: U251 CNS
# [56] = tested on: UACC-257 melanoma
# [57] = tested on: UACC-62 melanoma
# [58] = tested on: UO-31 renal
smiles,measurement,setting,value
Cc1nn2c(/C=C3\C(=O)Nc4ccc(Cl)cc43)c(C)nc2s1,GI50,[1],33.7 µM
same,TGI,[1],> 100 µM
same,GI50,[2],46 µM
same,TGI,[2],> 100 µM
same,GI50,[3],93.9 µM
same,TGI,[3],> 100 µM
same,GI50,[4],72.9 µM
same,TGI,[4],> 100 µM
same,GI50,[5],63.2 µM
same,TGI,[5],> 100 µM
same,GI50,[6],26 µM
same,TGI,[6],> 100 µM
same,GI50,[7],21.1 µM
same,TGI,[7],> 100 µM
same,GI50,[8],13.3 µM
same,TGI,[8],> 100 µM
same,GI50,[9],86.5 µM
same,TGI,[9],> 100 µM
same,GI50,[10],92 µM
same,TGI,[10],> 100 µM
same,GI50,[11],26.2 µM
same,TGI,[11],> 100 µM
same,GI50,[12],30.2 µM
same,TGI,[12],> 100 µM
same,GI50,[13],13.9 µM
same,TGI,[13],> 100 µM
same,GI50,[14],13.5 µM
same,TGI,[14],43.4 µM
same,GI50,[15],61.1 µM
same,TGI,[15],> 100 µM
same,GI50,[16],> 100 µM
same,TGI,[16],> 100 µM
same,GI50,[17],61.8 µM
same,TGI,[17],> 100 µM
same,GI50,[18],5.16 µM
same,TGI,[18],> 100 µM
same,GI50,[19],23.7 µM
same,TGI,[19],> 100 µM
same,GI50,[20],5.43 µM
same,TGI,[20],> 100 µM
same,GI50,[21],6.84 µM
same,TGI,[21],> 100 µM
same,GI50,[22],83.1 µM
same,TGI,[22],> 100 µM
same,GI50,[23],23.2 µM
same,TGI,[23],> 100 µM
same,GI50,[24],> 100 µM
same,TGI,[24],> 100 µM
same,GI50,[25],15.6 µM
same,TGI,[25],> 100 µM
same,GI50,[26],> 100 µM
same,TGI,[26],> 100 µM
same,GI50,[27],3.4 µM
same,TGI,[27],26.7 µM
same,GI50,[28],35.6 µM
same,TGI,[28],> 100 µM
same,GI50,[29],> 100 µM
same,TGI,[29],> 100 µM
same,GI50,[30],77.1 µM
same,TGI,[30],> 100 µM
same,GI50,[31],16.3 µM
same,TGI,[31],> 100 µM
same,GI50,[32],6 µM
same,TGI,[32],39 µM
same,GI50,[33],15.8 µM
same,TGI,[33],> 100 µM
same,GI50,[34],23.3 µM
same,TGI,[34],> 100 µM
same,GI50,[35],83 µM
same,TGI,[35],> 100 µM
same,GI50,[36],> 100 µM
same,TGI,[36],> 100 µM
same,GI50,[37],84.3 µM
same,TGI,[37],> 100 µM
same,GI50,[38],21.3 µM
same,TGI,[38],> 100 µM
same,GI50,[39],33.2 µM
same,TGI,[39],> 100 µM
same,GI50,[40],> 100 µM
same,TGI,[40],> 100 µM
same,GI50,[41],43.2 µM
same,TGI,[41],> 100 µM
same,GI50,[42],16.7 µM
same,TGI,[42],> 100 µM
same,GI50,[43],45 µM
same,TGI,[43],> 100 µM
same,GI50,[44],22.2 µM
same,TGI,[44],82.4 µM
same,GI50,[45],27.5 µM
same,TGI,[45],> 100 µM
same,GI50,[46],10.1 µM
same,TGI,[46],> 100 µM
same,GI50,[47],49.8 µM
same,TGI,[47],> 100 µM
same,GI50,[48],> 100 µM
same,TGI,[48],> 100 µM
same,GI50,[49],26.9 µM
same,TGI,[49],> 100 µM
same,GI50,[50],16 µM
same,TGI,[50],92.2 µM
same,GI50,[51],4.69 µM
same,TGI,[51],64.4 µM
same,GI50,[52],23.4 µM
same,TGI,[52],> 100 µM
same,GI50,[53],42.8 µM
same,TGI,[53],> 100 µM
same,GI50,[54],> 100 µM
same,TGI,[54],> 100 µM
same,GI50,[55],46.5 µM
same,TGI,[55],> 100 µM
same,GI50,[56],> 100 µM
same,TGI,[56],> 100 µM
same,GI50,[57],82.1 µM
same,TGI,[57],> 100 µM
same,GI50,[58],34.6 µM
same,TGI,[58],> 100 µM
